The record followed here is PubChem BioAssay (NCI).

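Each compound was tested at five concentrations against cells in 96-well plates for 48 hours. TGI marks complete inhibition of growth.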

Test systems include NCI-H23 lung; HCT-116 colon; CAKI-1 renal; M14 melanoma; DU-145 prostate; BT-549 breast; LOX IMVI melanoma; SNB-75 CNS; HT29 colon; MDA-MB-435; SR leukemia; T-47D breast; OVCAR-4 ovarian; K-562 leukemia; MOLT-4 leukemia.
Holding throughout (assay): inhibition of tumour cell growth, NCI panel, 48 h

Consider `CC(C)(C)c1ccc(-n2c3nc(=O)n(-c4ccccc4CO)c(=O)c-3cc3ccccc32)cc1`, for which the TGI in the assay on NCI-H23 lung, with HCT-116 colon, in the assay on CAKI-1 renal, with M14 melanoma, with DU-145 prostate and in the assay on BT-549 breast was above 100 µM in each case. In addition, the TGI in the assay with LOX IMVI melanoma was 37.9 µM; in the assay with SNB-75 CNS, above 100 µM; in the assay with HT29 colon, 86.8 µM; with MDA-MB-435 it was 99.4 µM; in the assay with SR leukemia, 73 µM; with T-47D breast, above 100 µM. The TGI in the assay on OVCAR-4 ovarian was above 100 µM; with K-562 leukemia, above 100 µM; in the assay with MOLT-4 leukemia, 57.2 µM.
Turning to `S=C1CSc2c(ccc3ccccc23)N1`, the TGI with NCI-H23 lung, in the assay on HCT-116 colon, in the assay on CAKI-1 renal, in the assay with M14 melanoma, in the assay on DU-145 prostate and in the assay on BT-549 breast was above 100 µM each time. The TGI in the assay with LOX IMVI melanoma, in the assay with SNB-75 CNS, with HT29 colon, with MDA-MB-435, with SR leukemia and in the assay on T-47D breast was above 100 µM in each case. Besides, the TGI in the assay with OVCAR-4 ovarian, in the assay with K-562 leukemia and in the assay on MOLT-4 leukemia was above 100 µM in each case.
As to `Cn1c(Cl)cn2c3nc4ccccc4nc3c(=O)c(C#N)c12`, the TGI in the assay on NCI-H23 lung, with HCT-116 colon, in the assay on CAKI-1 renal, with M14 melanoma, in the assay on DU-145 prostate and in the assay on BT-549 breast was above 100 µM throughout. Moreover, the TGI with LOX IMVI melanoma is above 100 µM; with SNB-75 CNS it was above 81.5 µM; in the assay with HT29 colon, above 100 µM; in the assay on MDA-MB-435 it was above 100 µM; with SR leukemia, above 100 µM; with T-47D breast, above 100 µM. In addition, the TGI in the assay on OVCAR-4 ovarian, in the assay on K-562 leukemia and in the assay on MOLT-4 leukemia was above 100 µM each time.
`Cc1ccc(C2SC(N)=Nc3c2c(C)nn3C(=O)c2ccccc2O)cc1` (stereo not given): the TGI in the assay on NCI-H23 lung, in the assay on HCT-116 colon, in the assay with CAKI-1 renal, in the assay with M14 melanoma, in the assay with DU-145 prostate and in the assay on BT-549 breast was above 10 µM each time. In addition, the TGI in the assay on LOX IMVI melanoma was above 10 µM; in the assay with SNB-75 CNS, 7.14 µM; in the assay on HT29 colon, above 10 µM; in the assay with MDA-MB-435, above 10 µM; with SR leukemia, above 10 µM; in the assay on T-47D breast, above 10 µM. In addition, the TGI with OVCAR-4 ovarian, with K-562 leukemia and in the assay on MOLT-4 leukemia was above 10 µM throughout.
In the case of `CC1(C)C/C(=N/O)c2c(nc3ccc4ccccc4c3c2-c2ccc(Cl)cc2)C1`, the TGI in the assay with NCI-H23 lung is 46.7 µM; with HCT-116 colon it was 24.1 µM; in the assay on CAKI-1 renal it was 26.3 µM; with M14 melanoma, above 100 µM; in the assay on DU-145 prostate it was 40.9 µM; with BT-549 breast, 30.9 µM. The TGI in the assay on LOX IMVI melanoma is 26.6 µM; in the assay with SNB-75 CNS, 35.7 µM; in the assay on HT29 colon, 33.5 µM; with MDA-MB-435 it was above 100 µM; in the assay with SR leukemia, 21 µM; in the assay on T-47D breast, 34.2 µM. The TGI turned out to be 30.4 µM in the assay with OVCAR-4 ovarian, 65.6 µM with K-562 leukemia and 52.6 µM in the assay on MOLT-4 leukemia.
Take `C=CC[C@@]1([C@H](C=C)COCc2ccc(OC)cc2)CC[C@]2(C)OC(C)(C)[C@@H](c3ccccc3)N2C1=S`: the TGI in the assay on NCI-H23 lung, in the assay with HCT-116 colon, in the assay on CAKI-1 renal, in the assay on M14 melanoma, in the assay on DU-145 prostate and in the assay on BT-549 breast was above 100 µM throughout. For the same compound, the TGI in the assay on LOX IMVI melanoma, with SNB-75 CNS, with HT29 colon, with MDA-MB-435, in the assay with SR leukemia and in the assay with T-47D breast was above 100 µM throughout. Further, the TGI with OVCAR-4 ovarian, with K-562 leukemia and with MOLT-4 leukemia was above 100 µM throughout.
Take `COc1ccc(N2C(=O)C(C)SC2c2cc3cc(Br)ccc3nc2Cl)cc1` (stereo not given): the TGI in the assay with NCI-H23 lung was above 100 µM; with HCT-116 colon it was above 100 µM; in the assay on CAKI-1 renal, above 100 µM; with M14 melanoma, above 100 µM; in the assay on DU-145 prostate, above 100 µM; in the assay on BT-549 breast it was 99.7 µM. In addition, the TGI was above 100 µM in the assay on LOX IMVI melanoma; above 100 µM in the assay on SNB-75 CNS; above 100 µM with HT29 colon; 50.5 µM in the assay on MDA-MB-435; 72.3 µM in the assay with SR leukemia; above 100 µM in the assay with T-47D breast. For the same compound, the values for the TGI in the assay on OVCAR-4 ovarian, in the assay with K-562 leukemia and in the assay on MOLT-4 leukemia were above 100 µM, above 100 µM and 79.2 µM, respectively.
